Assay results as given in article PMC5148686 (European journal of medicinal chemistry, 2016).
Entries after “also recorded” stand apart in the source; their conditions may differ.

Columns and labels:
[1] = target: human dopamine D2 receptor (Homo sapiens, UniProt P14416); assay: PDSP radioligand binding assay at dopamine D2 receptor; conditions: primary assay at 10 μM; not progressed to secondary assay
dopamine D3 receptor [2] = target: T1, dopamine D3 receptor (Homo sapiens, UniProt P35462); assay: PDSP radioligand binding assay at dopamine D3 receptor; conditions: versus 22c
T1 sequence (P35462 whole entry): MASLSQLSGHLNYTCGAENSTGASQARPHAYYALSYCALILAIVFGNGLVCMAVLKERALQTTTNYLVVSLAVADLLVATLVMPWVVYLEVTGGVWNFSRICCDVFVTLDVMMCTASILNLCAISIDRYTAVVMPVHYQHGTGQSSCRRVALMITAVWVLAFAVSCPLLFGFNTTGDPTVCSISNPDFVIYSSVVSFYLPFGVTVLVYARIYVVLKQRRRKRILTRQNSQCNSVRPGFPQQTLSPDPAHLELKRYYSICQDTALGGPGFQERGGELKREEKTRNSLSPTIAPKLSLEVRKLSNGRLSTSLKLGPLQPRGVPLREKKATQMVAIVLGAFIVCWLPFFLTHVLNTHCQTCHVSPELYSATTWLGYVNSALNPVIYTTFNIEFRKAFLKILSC

dopamine D3 receptor [3] = target: T1, dopamine D3 receptor; assay: [35S]GTPγS binding in CHO-hD3 cells; type: cell-based; conditions: compared with dopamine as full agonist
dopamine D1 receptor = dopamine D1 receptor (Macaca mulatta, UniProt O77680); assay: [35S]GTPγS binding stimulation in HEK293-rh D1 cells; type: cell-based, rhesus macaque; conditions: compared with dopamine as full agonist
Sequence of dopamine D1 receptor (O77680 whole entry): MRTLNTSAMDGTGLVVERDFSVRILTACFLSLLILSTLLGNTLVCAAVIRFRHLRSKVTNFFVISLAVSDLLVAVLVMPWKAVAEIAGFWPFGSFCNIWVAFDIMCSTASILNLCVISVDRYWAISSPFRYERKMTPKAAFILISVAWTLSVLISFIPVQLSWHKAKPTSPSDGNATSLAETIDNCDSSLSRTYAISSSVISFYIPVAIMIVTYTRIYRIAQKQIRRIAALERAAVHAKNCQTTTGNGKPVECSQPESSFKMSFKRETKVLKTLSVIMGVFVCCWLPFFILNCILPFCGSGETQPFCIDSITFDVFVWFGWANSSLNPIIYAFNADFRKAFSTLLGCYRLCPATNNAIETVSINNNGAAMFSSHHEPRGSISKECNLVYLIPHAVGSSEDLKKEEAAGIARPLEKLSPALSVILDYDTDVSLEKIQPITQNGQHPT

Sequence of human dopamine D2 receptor (P14416 whole entry): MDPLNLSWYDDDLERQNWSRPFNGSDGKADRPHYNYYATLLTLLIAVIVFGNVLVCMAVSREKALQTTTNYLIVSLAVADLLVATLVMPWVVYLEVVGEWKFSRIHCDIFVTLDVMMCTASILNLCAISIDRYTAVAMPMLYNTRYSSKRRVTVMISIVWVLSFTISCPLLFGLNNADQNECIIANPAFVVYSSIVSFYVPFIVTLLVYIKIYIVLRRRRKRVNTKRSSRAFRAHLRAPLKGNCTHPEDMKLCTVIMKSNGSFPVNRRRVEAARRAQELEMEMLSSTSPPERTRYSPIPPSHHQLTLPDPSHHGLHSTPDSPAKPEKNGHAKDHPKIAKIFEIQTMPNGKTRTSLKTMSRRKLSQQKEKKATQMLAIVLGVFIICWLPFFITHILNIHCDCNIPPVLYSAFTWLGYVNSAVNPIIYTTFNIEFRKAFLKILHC

For CCOc1c(O)cc(Br)c2c1CN1CCc3cc(OC)c(O)cc3[C@@H]1C2 [Compound 20a, (S)-12-bromo-9-ethoxy-3-methoxy-5,8,13,13a-tetrahydro-6H-isoquinolino[3,2-a]isoquinoline-2,10-diol], the “D2 receptor affinity in the primary assay” value (“D2 receptor affinity” below) [1] was “did not show any appreciable D2 receptor affinity”.
For CCCCOc1c(O)ccc2c1CN1CCc3cc(OC)c(O)cc3[C@@H]1C2 [Compound 22c, (S)-9-butoxy-3-methoxy-5,8,13,13a-tetrahydro-6H-isoquinolino[3,2-a]isoquinoline-2,10-diol], the “D2 receptor affinity” value [1] was “lacked any appreciable affinity”.
COCCOc1c(O)ccc2c1CN1CCc3cc(OC)c(O)cc3[C@@H]1C2 [Compound 22g, (S)-3-methoxy-9-(2-methoxyethoxy)-5,8,13,13a-tetrahydro-6H-isoquinolino[3,2-a]isoquinoline-2,10-diol] was tested, and the “fold higher D3 affinity than n-butyloxy analogue 22c” value (dopamine D3 receptor [2]) was 4 fold.
With COCCOc1c(O)cc(Br)c2c1CN1CCc3cc(OC)c(O)cc3[C@@H]1C2 [Compound 20g, (S)-12-bromo-3-methoxy-9-(2-methoxyethoxy)-5,8,13,13a-tetrahydro-6H-isoquinolino[3,2-a]isoquinoline-2,10-diol] the “D2 receptor affinity” value [1] was “did not show any appreciable D2 receptor affinity; also recorded: no activity”.
CCCCCCOc1c(O)ccc2c1CN1CCc3cc(OC)c(O)cc3[C@@H]1C2 [Compound 22e, (S)-9-(hexyloxy)-3-methoxy-5,8,13,13a-tetrahydro-6H-isoquinolino[3,2-a]isoquinoline-2,10-diol] was tested, and the “D2 receptor affinity” value [1] was “lacked any appreciable affinity”.
With CCOc1c(O)ccc2c1CN1CCc3cc(OC)c(O)cc3[C@@H]1C2 [Compound 22a, (S)-9-ethoxy-3-methoxy-5,8,13,13a-tetrahydro-6H-isoquinolino[3,2-a]isoquinoline-2,10-diol] the “D2 receptor affinity” value [1] was “lacked any appreciable affinity”, the “intrinsic activity at D3 receptor (stimulation of GTPγ-S binding)” value (dopamine D3 receptor [3]) was “lacked intrinsic activity” and the “intrinsic activity at D1 receptor (stimulation of GTPγ-S binding)” value (dopamine D1 receptor) was “lacked intrinsic activity”.
